{
  "source": "patent US11357779B2",
  "about": "(G1 Therapeutics, Inc., priority 2018, dated 2022)",
  "test": "Noncompartmental pharmacokinetic parameters (Cmax, Tmax, AUC, Racc) in QD and BID cohorts of Form B",
  "type": "in vivo, human",
  "conditions": "human, plasma, oral",
  "procedure": "Analysis of plasma concentration versus time data for calculation of standard pharmacokinetic (PK) parameters following oral administration was conducted using Phoenix WinNonlin version 6.3 using actual blood sampling times.\nThe following pharmacokinetic parameters were calculated from the concentration versus time data obtained in Example 1 for each of the above QD (200 mg, 300 mg, 400 mg, 500 mg, or 650 mg dosed) and BID (100 mg, 150 mg, or 200 mg doses) Form B of Compound II dosage cohorts: • Cmax—the observed peak plasma concentration determined from the plasma concentration versus time data obtained on Day 1 and Day 29, as applicable; • Tmax—the time to reach the observed peak plasma concentration from the plasma concentration versus time data obtained on Day 1 and Day 29, as applicable; • AUC—area under the plasma concentration versus time curve during a dosing interval on Day 1 and Day 29, as applicable; and • Racc—accumulation ratio calculated as AUCDay 29/AUCDay 1.",
  "note": "Read-outs that look alike come from different tables or passages of the source.",
  "data": [
    {"smiles": "CC(C)N1CCN(c2ccc(Nc3ncc4cc5n(c4n3)C3(CCCCC3)CNC5=O)nc2)CC1", "note": "[Compound I, 2′-((5-(4-isopropylpiperazin-1-yl)pyridin-2-yl)amino)-7′,8′-dihydro-6′H-spiro[cyclohexane-1,9′-pyrazino[1′,2′:1,5]pyrrolo[2,3-d]pyrimidin]-6′-one]", "values": [
      {"measurement": "AUC(0-t)", "setting": "100 mg, Cohort 6, 100 mg BID of Form B, Day 1, read-out: AUClast, Mean", "result": 59.7, "unit": "ng·h/mL"},
      {"measurement": "AUC(0-t)", "setting": "100 mg, Cohort 6, 100 mg BID of Form B, Day 1, read-out: AUClast, Median", "result": 53.1, "unit": "ng·h/mL"},
      {"measurement": "Cmax", "setting": "100 mg, Cohort 6, 100 mg BID of Form B, Day 1, read-out: Cmax, Mean", "result": 10.2, "unit": "ng/mL"},
      {"measurement": "Cmax", "setting": "100 mg, Cohort 6, 100 mg BID of Form B, Day 1, read-out: Cmax, Median", "result": 8.95, "unit": "ng/mL"},
      {"measurement": "Tmax", "setting": "100 mg, Cohort 6, 100 mg BID of Form B, Day 1, read-out: Tmax, Mean", "result": 3.17, "unit": "h"},
      {"measurement": "Tmax", "setting": "100 mg, Cohort 6, 100 mg BID of Form B, Day 1, read-out: Tmax, Median", "result": 3, "unit": "h"},
      {"measurement": "AUC(0-t)", "setting": "100 mg, Compound I, 100 mg BID of Form B, Cohort 6, Day 29, read-out: AUClast (Mean)", "result": 101, "unit": "ng·h/mL"},
      {"measurement": "AUC(0-t)", "setting": "100 mg, Compound I, 100 mg BID of Form B, Cohort 6, Day 29, read-out: AUClast (Median)", "result": 88.2, "unit": "ng·h/mL"},
      {"measurement": "Cmax", "setting": "100 mg, Compound I, 100 mg BID of Form B, Cohort 6, Day 29, read-out: Cmax (Mean)", "result": 12.3, "unit": "ng/mL"},
      {"measurement": "Cmax", "setting": "100 mg, Compound I, 100 mg BID of Form B, Cohort 6, Day 29, read-out: Cmax (Median)", "result": 11.8, "unit": "ng/mL"},
      {"measurement": "Tmax", "setting": "100 mg, Compound I, 100 mg BID of Form B, Cohort 6, Day 29, read-out: Tmax (Mean)", "result": 4.4, "unit": "h"},
      {"measurement": "Tmax", "setting": "100 mg, Compound I, 100 mg BID of Form B, Cohort 6, Day 29, read-out: Tmax (Median)", "result": 3, "unit": "h"},
      {"measurement": "AUC(0-t)", "setting": "150 mg, Compound I, 150 mg BID of Form B, Cohort 7, Day 1, read-out: AUClast (Mean)", "result": 130, "unit": "ng·h/mL"},
      {"measurement": "AUC(0-t)", "setting": "150 mg, Compound I, 150 mg BID of Form B, Cohort 7, Day 1, read-out: AUClast (Median)", "result": 141, "unit": "ng·h/mL"},
      {"measurement": "Cmax", "setting": "150 mg, Compound I, 150 mg BID of Form B, Cohort 7, Day 1, read-out: Cmax (Mean)", "result": 21.7, "unit": "ng/mL"},
      {"measurement": "Cmax", "setting": "150 mg, Compound I, 150 mg BID of Form B, Cohort 7, Day 1, read-out: Cmax (Median)", "result": 24.6, "unit": "ng/mL"},
      {"measurement": "Tmax", "setting": "150 mg, Compound I, 150 mg BID of Form B, Cohort 7, Day 1, read-out: Tmax (Mean)", "result": 3.67, "unit": "h"},
      {"measurement": "Tmax", "setting": "150 mg, Compound I, 150 mg BID of Form B, Cohort 7, Day 1, read-out: Tmax (Median)", "result": 4, "unit": "h"},
      {"measurement": "AUC(0-t)", "setting": "150 mg, Compound I, 150 mg BID of Form B, Cohort 7, Day 29, read-out: AUClast (Mean)", "result": 455, "unit": "ng·h/mL"},
      {"measurement": "AUC(0-t)", "setting": "150 mg, Compound I, 150 mg BID of Form B, Cohort 7, Day 29, read-out: AUClast (Median)", "result": 334, "unit": "ng·h/mL"},
      {"measurement": "Cmax", "setting": "150 mg, Compound I, 150 mg BID of Form B, Cohort 7, Day 29, read-out: Cmax (Mean)", "result": 50.2, "unit": "ng/mL"},
      {"measurement": "Cmax", "setting": "150 mg, Compound I, 150 mg BID of Form B, Cohort 7, Day 29, read-out: Cmax (Median)", "result": 36.9, "unit": "ng/mL"},
      {"measurement": "Tmax", "setting": "150 mg, Compound I, 150 mg BID of Form B, Cohort 7, Day 29, read-out: Tmax (Mean)", "result": 4, "unit": "h"},
      {"measurement": "Tmax", "setting": "150 mg, Compound I, 150 mg BID of Form B, Cohort 7, Day 29, read-out: Tmax (Median)", "result": 4, "unit": "h"},
      {"measurement": "AUC(0-t)", "setting": "200 mg, Cohort 1, 200 mg QD of Form B, Day 1, read-out: AUClast, Mean", "result": 215, "unit": "ng·h/mL"},
      {"measurement": "AUC(0-t)", "setting": "200 mg, Cohort 1, 200 mg QD of Form B, Day 1, read-out: AUClast, Median", "result": 232, "unit": "ng·h/mL"},
      {"measurement": "Cmax", "setting": "200 mg, Cohort 1, 200 mg QD of Form B, Day 1, read-out: Cmax, Mean", "result": 25.5, "unit": "ng/mL"},
      {"measurement": "Cmax", "setting": "200 mg, Cohort 1, 200 mg QD of Form B, Day 1, read-out: Cmax, Median", "result": 27, "unit": "ng/mL"},
      {"measurement": "Tmax", "setting": "200 mg, Cohort 1, 200 mg QD of Form B, Day 1, read-out: Tmax, Mean", "result": 4.17, "unit": "h"},
      {"measurement": "Tmax", "setting": "200 mg, Cohort 1, 200 mg QD of Form B, Day 1, read-out: Tmax, Median", "result": 4, "unit": "h"},
      {"measurement": "AUC(0-t)", "setting": "200 mg, Compound I, 200 mg BID of Form B, Cohort 7, Day 1, read-out: AUClast (Mean)", "result": 118, "unit": "ng·h/mL"},
      {"measurement": "AUC(0-t)", "setting": "200 mg, Compound I, 200 mg BID of Form B, Cohort 7, Day 1, read-out: AUClast (Median)", "result": 125, "unit": "ng·h/mL"},
      {"measurement": "Cmax", "setting": "200 mg, Compound I, 200 mg BID of Form B, Cohort 7, Day 1, read-out: Cmax (Mean)", "result": 17.3, "unit": "ng/mL"},
      {"measurement": "Cmax", "setting": "200 mg, Compound I, 200 mg BID of Form B, Cohort 7, Day 1, read-out: Cmax (Median)", "result": 17.6, "unit": "ng/mL"},
      {"measurement": "Tmax", "setting": "200 mg, Compound I, 200 mg BID of Form B, Cohort 7, Day 1, read-out: Tmax (Mean)", "result": 5, "unit": "h"},
      {"measurement": "Tmax", "setting": "200 mg, Compound I, 200 mg BID of Form B, Cohort 7, Day 1, read-out: Tmax (Median)", "result": 5, "unit": "h"},
      {"measurement": "AUC(0-t)", "setting": "200 mg, Compound I, 200 mg BID of Form B, Cohort 8, Day 29, read-out: AUClast (Mean)", "result": 197, "unit": "ng·h/mL"},
      {"measurement": "AUC(0-t)", "setting": "200 mg, Compound I, 200 mg BID of Form B, Cohort 8, Day 29, read-out: AUClast (Median)", "result": 205, "unit": "ng·h/mL"},
      {"measurement": "Cmax", "setting": "200 mg, Compound I, 200 mg BID of Form B, Cohort 8, Day 29, read-out: Cmax (Mean)", "result": 26.3, "unit": "ng/mL"},
      {"measurement": "Cmax", "setting": "200 mg, Compound I, 200 mg BID of Form B, Cohort 8, Day 29, read-out: Cmax (Median)", "result": 30.5, "unit": "ng/mL"},
      {"measurement": "Tmax", "setting": "200 mg, Compound I, 200 mg BID of Form B, Cohort 8, Day 29, read-out: Tmax (Mean)", "result": 6.67, "unit": "h"},
      {"measurement": "Tmax", "setting": "200 mg, Compound I, 200 mg BID of Form B, Cohort 8, Day 29, read-out: Tmax (Median)", "result": 4, "unit": "h"},
      {"measurement": "AUC(0-t)", "setting": "200 mg, Compound I, 200 mg QD of Form B, Cohort 1, Day 29, read-out: AUClast (Mean)", "result": 229, "unit": "ng·h/mL"},
      {"measurement": "AUC(0-t)", "setting": "200 mg, Compound I, 200 mg QD of Form B, Cohort 1, Day 29, read-out: AUClast (Median)", "result": 227, "unit": "ng·h/mL"},
      {"measurement": "Cmax", "setting": "200 mg, Compound I, 200 mg QD of Form B, Cohort 1, Day 29, read-out: Cmax (Mean)", "result": 20.4, "unit": "ng/mL"},
      {"measurement": "Cmax", "setting": "200 mg, Compound I, 200 mg QD of Form B, Cohort 1, Day 29, read-out: Cmax (Median)", "result": 21.3, "unit": "ng/mL"},
      {"measurement": "Tmax", "setting": "200 mg, Compound I, 200 mg QD of Form B, Cohort 1, Day 29, read-out: Tmax (Mean)", "result": 4.2, "unit": "h"},
      {"measurement": "Tmax", "setting": "200 mg, Compound I, 200 mg QD of Form B, Cohort 1, Day 29, read-out: Tmax (Median)", "result": 4, "unit": "h"},
      {"measurement": "AUC(0-t)", "setting": "300 mg, Cohort 2, 300 mg QD of Form B, Day 1, upon exclusion of data for patient that vomited immediately after dosing, read-out: AUClast, Mean", "result": 567, "unit": "ng·h/mL"}
    ]}
  ]
}
